Laboratory results published in patent publication US7119256B2, “Gene encoding acetolactate synthase” (priority 2000, dated 2006).

What was measured:
[1] = tested on: wild type (Kinmaze) culture cells; assay: Growth of wild type rice (Kinmaze) culture cells in liquid medium with herbicide (relative wet weight); format: cell-based, Oryza sativa var. Kinmaze
Experimental: (§1) Approximately 1.5 g (wet weight) of the resistant mutant was transplanted in 200 ml of a Erlenmeyer flask supplemented with 50 ml of a MS-2,4-D liquid medium and bispyribac-sodium at an appropriate concentration, followed by culturing at approximately 27° C. for an appropriate period. The wet weight of the callus was measured periodically. The relative amount of increase was determined based on the wet weight of the transplanted resistant mutant. In addition, the experiment was performed three times with different bispyribac-sodium concentrations, and the standard error was calculated. […] As a control, a similar experiment was conducted using the wild type (Kinmaze).
(§2) The growth rates of the wild type and the resistant mutant were measured as described above except for the use of chlorsulfuron instead of bispyribac-sodium.

[2] = biological target: T1, S627I mutant ALS (Oryza sativa subsp. japonica, UniProt Q6K2E8, S627I); assay: Herbicide sensitivity of crude ALS with S627I mutation only, 1 mM valine; format: biochemical, rice; conditions: crude enzyme
T1 construct: one type of cDNA containing a full length ALS gene could be obtained from a cDNA library derived from the wild type; made in house; host or cells: E. coli JM 109, pGEX-2T backbone; crude enzyme solution
Experimental: A plasmid having W548L mutant ALS gene or a plasmid having S627I mutant ALS gene was transformed into E. coli strain JM 109. The colonies obtained from transformation were subjected to liquid culture, expression of GST induction protein was induced in the same manner as in Examples 4 and 5, a crude enzyme solution was prepared, and then herbicide sensitivity of ALS was examined in the presence of 1 mM valine.

[3] = biological target: T2, wild type ALS protein (Oryza sativa subsp. japonica, UniProt Q6K2E8); assay: Herbicide sensitivity of partially purified wild type ALS protein (acetoin colorimetric ALS activity); format: biochemical, rice (Kinmaze); design: the wild type ALS protein was separated and purified in the same manner and used for the experiment; from tissue; host or cells: wild type rice (Kinmaze) cultured cells, liquid culture; ammonium sulfate, Sephadex G-25, HiTrap Q
T2 sequence (Q6K2E8 44-644): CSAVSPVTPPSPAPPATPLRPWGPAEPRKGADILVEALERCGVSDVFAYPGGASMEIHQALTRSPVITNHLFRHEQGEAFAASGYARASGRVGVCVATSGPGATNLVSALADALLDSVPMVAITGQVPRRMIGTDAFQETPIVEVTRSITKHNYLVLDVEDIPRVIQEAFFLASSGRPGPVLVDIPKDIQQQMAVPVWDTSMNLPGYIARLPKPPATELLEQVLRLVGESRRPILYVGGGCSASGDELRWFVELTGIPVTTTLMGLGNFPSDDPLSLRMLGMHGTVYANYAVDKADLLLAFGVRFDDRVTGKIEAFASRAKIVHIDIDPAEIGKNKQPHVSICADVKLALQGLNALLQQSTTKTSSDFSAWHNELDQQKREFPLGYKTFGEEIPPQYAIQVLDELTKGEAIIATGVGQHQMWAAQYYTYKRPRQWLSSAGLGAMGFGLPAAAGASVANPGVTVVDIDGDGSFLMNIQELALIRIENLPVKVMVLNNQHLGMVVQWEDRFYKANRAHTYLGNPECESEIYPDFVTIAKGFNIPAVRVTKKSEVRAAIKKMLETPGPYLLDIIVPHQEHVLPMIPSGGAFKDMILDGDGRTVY

[4] = tested on: resistant mutant culture cells; assay: Growth of bispyribac-sodium resistant rice culture cells (resistant mutant) with herbicide (relative wet weight); format: cell-based, Oryza sativa var. Kinmaze
Experimental: Subsequently, the resulting plurality of cell lines were cultured while elevating the concentration of bispyribac-sodium in an orderly manner. […] The bispyribac-sodium resistant culture cells (hereinafter referred to as resistant mutant) were sub-cultured on MS-2,4-D solid media supplemented with 100 μM bispyribac-sodium. Part of the sub-cultured resistant mutant was sampled, added into MS-2,4-D liquid media not supplemented with bispyribac-sodium, and then subjected to suspended cell culture at a cycle of 8 to 10 days.
as §1, §2

T1 sequence (Q6K2E8 44-644 S627I): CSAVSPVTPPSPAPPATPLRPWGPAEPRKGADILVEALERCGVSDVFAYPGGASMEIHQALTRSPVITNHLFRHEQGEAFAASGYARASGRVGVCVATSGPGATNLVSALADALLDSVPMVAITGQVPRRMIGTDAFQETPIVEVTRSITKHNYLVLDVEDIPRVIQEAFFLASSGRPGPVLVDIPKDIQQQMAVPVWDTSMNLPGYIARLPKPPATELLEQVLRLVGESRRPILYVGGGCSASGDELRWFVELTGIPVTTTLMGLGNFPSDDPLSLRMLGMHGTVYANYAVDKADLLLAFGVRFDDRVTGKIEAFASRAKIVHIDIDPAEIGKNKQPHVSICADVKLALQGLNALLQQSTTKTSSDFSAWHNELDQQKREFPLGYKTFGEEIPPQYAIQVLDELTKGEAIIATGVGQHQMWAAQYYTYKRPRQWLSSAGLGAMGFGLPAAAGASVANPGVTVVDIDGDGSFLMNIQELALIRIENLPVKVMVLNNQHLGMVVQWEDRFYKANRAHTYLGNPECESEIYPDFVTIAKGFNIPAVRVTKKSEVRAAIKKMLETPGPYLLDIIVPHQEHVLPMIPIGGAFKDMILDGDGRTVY

SMILES	growth of the wild type (relative weight on day 8) ([1]; 1 nM bispyribac-sodium)	growth of the wild type (relative weight on day 8) ([1]; 10 nM or more bispyribac-sodium)	resistance imparted by S627I mutation alone [2]	IC50 [3] [nM]	growth of the resistant mutant (relative weight on day 8) ([4]; 10 μM bispyribac-sodium)	proliferation of resistant cell lines in the presence of herbicide ([4]; 100 μM bispyribac-sodium)	growth of the wild type (relative weight on day 9) ([1]; 1 nM chlorsulfuron)	growth of the resistant mutant (relative weight on day 9) ([4]; 1 μM chlorsulfuron)
COc1cc(OC)nc(Oc2cccc(Oc3nc(OC)cc(OC)n3)c2C(=O)[O-])n1.[Na+] [Bispyribac-sodium, bispyribac-sodium]	not inhibited	inhibited	imparted resistance	5.63	almost none of the growth of the resistant mutant was affected	can proliferate	–	–
COc1nc(C)nc(NC(=O)NS(=O)(=O)c2ccccc2Cl)n1 [Chlorsulfuron, chlorsulfuron]	–	–	imparted no obvious resistance	17.3	–	–	inhibited	strongly inhibited
